The source of these data is patent US6548486B1, “Fatty acid esters of nucleoside analogs” (Norsk Hydro a.s., priority 1991, dated 2003).

The test system of assay [1] is HSV 2 (3rd passage of a clinical isolate). The assay can be described thus: Plaque method: tissue culture of HSV 2 in vero cells. It counts as cell-based. The note with it: Ara T esters at 3.9 μmol/l, FIG. 2.
The subject of assay [2] is HSV 2 strain relatively resistent to ACV. The assay can be described thus: Plaque method with a HSV 2 strain relatively resistent to ACV. It counts as cell-based. The note with it: 0.9 μmol/l versus 2.2 μmol/l, FIG. 1B. As to the method:
A virus preparation of HSV 2 (3rd passage of a clinical isolate) is diluted to 3×10^3 pfu/well, and thereafter inocculated on cells and incubated for 1 hour in a tissue culture of vero cells. At that time the virus is incorporated into the cells.
These cells are then cultivated for 24 hours with an anti-viral agent. Thereafter they are placed under freezing conditions, which lead to the disruption of the cells and free virus appear under the melting process. Dilutions of either 1/100 or 1/10000 are prepared and added to fresh tissue cultures. Incubation for 1 hour leads to incorporation of virus in the cells. Carboxymethylcellulose (CMC) is added in order to prohibit the migration of virus between the cells through the medium. Spread of virus by cell contact is still effective in causing the formation of plaques.
One plaque will represent one infectious virus. Thus the counting of plaques gives a precise quantitation of the number of infectious virus.
In a test done with a HSV 2 strain relatively resistent to ACV, the test compounds, ACV, ACV-oleate and ACV-elaidate, were added at 0.9 μmol/l or 2.2 μmol/l.

In another assay the test system is Herpes virus 2. The experiment in a line: In vivo reduced mortality, Herpes Simplex Virus 2 infected mice. Also noted: species or system female NMRI mice. The source says: The in vivo experiments were done using 3-4 weeks old female NMRI mice. This strain of mice is sensitive to the human herpes virus, up to an age of about 6 weeks, where after they become relatively resistant. Mice below this critical age were used, having a weight of 13-17 grams.
Herpes virus 2 which were third passage isolates were inocculated on the left ear lobe by a standarized procedure. […] Thus HSV 2 is especially suitable as a system for evaluation of the therapeutic efficiency by counting the number of cases of encephalitis.
The animals received approximately 12 mg/kg body weight/day through the drinking water. The compounds were added to the drinking water formulated as micelles with deoxycholate.
Both the control group and the groups receiving the test compounds included 10 animals in each group. The test compounds were ACV-elaidate and ACV in comparison with the control. Treatment was started on day 3 from inocculation. At that time the infection is well established in the central nerve system.

As to `CCCCCCCC/C=C\CCCCCCCC(=O)OC[C@H]1O[C@@H](n2cc(C)c(=O)[nH]c2=O)[C@@H](O)[C@@H]1O` (relative stereo) [Ara T oleate, 5′-O-(cis-9″-Octadecenoyl)-1-β-D-Arabinofuranosyl-Thymine], the inhibition in assay [1] came to 100%.
As for `Nc1nc2c(ncn2COCCO)c(=O)[nH]1` [ACV, 9-(2-Hydroxyethoxymethyl)-Guanine, reference compound], the “inhibitory effect at increasing concentration” value in assay [2] was “remains at the same level”.
Turning to `CCCCCCCC/C=C/CCCCCCCC(=O)OCCOCn1cnc2c(=O)[nH]c(N)nc21` [ACV-elaidate, 9-(2′-(trans-9″-Octadecenoyloxy)ethoxymethyl)-Guanine], in assay [2], the “inhibitory effect at increasing concentration” value is on record as “strongly enhanced at the higher concentration”. The survival rate in the assay with Herpes virus 2 (approximately 12 mg/kg body weight/day through the drinking water, treatment started day 3 from inocculation, FIG. 3) was found to be 40%. Besides, the signs of encephalitis result with Herpes virus 2 (surviving animals after 21 days) is given as “no signs of encephalitis”.
For `CCCCCCCC/C=C\CCCCCCCC(=O)OCCOCn1cnc2c(=O)[nH]c(N)nc21` [ACV-oleate, 9-(2′-(cis-9′-Octadecenoylcxy)ethoxymethyl)-Guanine], the “inhibitory effect at increasing concentration” value in assay [2] is listed as “strongly enhanced at the higher concentration”.

By inhibition is commonly meant the percentage by which the read-out fell short of the control.
